Experimental data reported in patent US11083709B2, “Compounds, compositions, and methods of increasing CFTR activity” (Proteostasis Therapeutics, Inc., priority 2015, dated 2021).
Where a name gives a salt, the structure may show the parent alone.

Assays:
ΔF508-CFTR [1] = target: T1, ΔF508-CFTR (Homo sapiens, UniProt P13569, DEL508-508); experiment: hBE equivalent current (Ieq) assay, primary lung epithelial cells homozygous for ΔF508; type: cell-based; conditions: 24 h treatment; for leq: activity of compound with VX-809, % of VX-809 (AUC of equivalent chloride current): compound at 10 uM and VX-809 at 1 uM, relative to VX-809 (1 uM); for leq: activity relative to VX-809 (AUC of equivalent chloride current): compound alone run at 10 uM, relative to VX-809 at 1 uM
T1 construct: primary lung epithelial cells (hBEs) homozygous for the Cystic Fibrosis-causing ΔF508 mutation; endogenous in cells; host or cells: primary lung epithelial cells (hBEs) homozygous for ΔF508
Method: Primary lung epithelial cells homozygous for the Cystic Fibrosis-causing ΔF508 mutation were differentiated for a minimum of 4 weeks in an air-liquid interface on Costar 24 well HTS filter plates prior to the equivalent current (Ieq) measurements. Cells were apically mucus-washed for 30 minutes 24h prior to treatment with compounds. The basolateral media was removed and replaced with media containing the compound of interest diluted to its final concentration from DMSO stocks. Treated cells were incubated at 37° C. and 5% CO2 for 24 hours. At the end of the treatment period, the media was changed to the Ieq experimental solution for 30 minutes before the experiment and plates are maintained in a CO2-free incubator during this period. The plates containing the cells were then placed in pre-warmed heating blocks at 36° C.±0.5 for 15 minutes before measurements are taken. The transepithelial voltage (VT) and conductance (GT) were measured using a custom 24 channel current clamp (TECC-24) with 24 well electrode manifold. The Ieq assay measurements were made following additions with standardized time periods: • 1. The baseline VT and GT values were measured for approximately 20 minutes. • 2. Benzamil was added to block ENaC for 15 minutes. • 3. Forskolin plus VX-770 (ivacaftor) were added to maximally activate ΔF508-CFTR for 27 minutes. • 4. Bumetanide was added to inhibit the NaK2Cl cotransporter and shut-off secretion of chloride.
The activity data captured was the area under the curve (AUC) for the traces of the equivalent chloride current. The AUC was collected from the time of the forskolin/VX-770 addition until the inhibition by bumetanide addition. Correction in response to compound treatment was scored as the increase in the AUC for compound-treated samples over that of vehicle-treated samples.
The results are shown below in Table 2. ++ indicates activity ≥25% run at 10 uM of VX-809 at 1 uM, + indicates activity 10 to <25% run at 10 uM of VX-809 at 1 uM, ** indicates activity ≥200% of VX-809 (1 uM) with compound at 10 uM and VX-809 at 1 uM; * indicates activity 100-200% of VX-809 (1 uM) with compound at 10 uM and VX-809 at 1 uM. ^## indicates activity ≥200% of VX-809 (3 uM) with compound at 10 uM and VX-809 at 3 uM; ^# indicates activity 100-200% of VX-809 (3 uM) with compound at 10 uM and VX-809 at 3 uM.

ΔF508-CFTR [2] = target: T1, ΔF508-CFTR; experiment: Ussing measurements, hBEs homozygous for ΔF508; type: cell-based; conditions: compound at 10 uM and VX-809 at 3 uM, relative to VX-809 (3 uM); 24 h treatment
Method: As discussed above, Ussing measurements can be used to measure CFTR activity. In this example, primary lung epithelial cells (hBEs) homozygous for the Cystic Fibrosis-causing ΔF508 mutation were differentiated for a minimum of 4 weeks in an air-liquid interface on SnapWell filter plates prior to the Ussing measurements. Cells were apically mucus-washed for 30 minutes prior to treatment with compounds. The basolateral media was removed and replaced with media containing the compound of interest diluted to its final concentration from DMSO stocks. Treated cells were incubated at 37° C. and 5% CO2 for 24 hours. […] The short-circuit current was measured in voltage clamp-mode (Vhold=0 mV), and the entire assay was conducted at a temperature of 36° C.-36.5° C. Once the voltages stabilized, the chambers were clamped, and data was recorded by pulse readings every 5 seconds. Following baseline current stabilization, the following additions were applied and the changes in current and resistance of the cells was monitored: • 1. […]
The inhibitable current (that current that is blocked by CFTRinh-172) is measured as the specific activity of the ΔF508-CFTR channel, and increases in response to compound in this activity over that observed in vehicle-treated samples are identified as the correction of ΔF508-CFTR function imparted by the compound tested. […]

[3] = tested on: CFTR in R117H/F508del HBEs; experiment: Ussing measurements, R117H/F508del HBEs; type: cell-based, human; conditions: Ussing; Compound A 10 uM, ivacaftor 1 uM
Method: (§1) As discussed above, Ussing measurements was used to measure CFTR activity. In this method, primary lung epithelial cells (hBEs) with a Cystic Fibrosis-causing class III mutation were differentiated for a minimum of 4 weeks in an air-liquid interface on SnapWell™ filter plates prior to the Ussing measurements. Cells were apically mucus-washed for 30 minutes prior to treatment with compounds. The basolateral media was removed and replaced with media containing the compound of interest diluted to its final concentration from DMSO stocks. Treated cells were incubated at 37° C. and 5% CO2 for 24 hours. At the end of the treatment period, the cells on filters were transferred to the Ussing chamber and equilibrated for 30 minutes. The short-circuit current was measured in voltage clamp-mode (Vhold=0 mV), and the entire assay was conducted at a temperature of 36° C.-36.5° C. Once the voltages stabilized, the chambers were clamped, and data was recorded by pulse readings every 5 seconds. Following baseline current stabilization, the following additions were applied and the changes in current and resistance of the cells was monitored: • 1. Benzamil to the apical chamber to inhibit ENaC sodium channel. • 2. Forskolin to both chambers to activate ΔF508-CFTR by phosphorylation. • 3. Ivacaftor or Genistein to the apical chamber to potentiate ΔF508-CFTR channel opening. • 4. CFTRinh-172 to the apical chamber to inhibit ΔF508-CFTR Cl-conductance.
(§2) The forskolin-sensitive current and inhibitable current (that potentiated current that is blocked by CFTRinh-172) were measured as the specific activity of the ΔF508-CFTR channel, and increase in response to compound in this activity over that observed in vehicle-treated samples were identified as the correction of ΔF508-CFTR function imparted by the compound tested.
(§3) The results are shown below in Tables 5 and 6. Compound A is 10 uM and VX-809 is 3 uM and ivacaftor is 1 uM.

[4] = tested on: CFTR in G551D/F508del HBEs; experiment: Ussing measurements, G551D/F508del HBEs; type: cell-based, human; conditions: Ussing; Compound A 10 uM, ivacaftor 1 uM
Method: as §1, §2, §3

T1 sequence (P13569 with tags, fused parts or gaps DEL508-508): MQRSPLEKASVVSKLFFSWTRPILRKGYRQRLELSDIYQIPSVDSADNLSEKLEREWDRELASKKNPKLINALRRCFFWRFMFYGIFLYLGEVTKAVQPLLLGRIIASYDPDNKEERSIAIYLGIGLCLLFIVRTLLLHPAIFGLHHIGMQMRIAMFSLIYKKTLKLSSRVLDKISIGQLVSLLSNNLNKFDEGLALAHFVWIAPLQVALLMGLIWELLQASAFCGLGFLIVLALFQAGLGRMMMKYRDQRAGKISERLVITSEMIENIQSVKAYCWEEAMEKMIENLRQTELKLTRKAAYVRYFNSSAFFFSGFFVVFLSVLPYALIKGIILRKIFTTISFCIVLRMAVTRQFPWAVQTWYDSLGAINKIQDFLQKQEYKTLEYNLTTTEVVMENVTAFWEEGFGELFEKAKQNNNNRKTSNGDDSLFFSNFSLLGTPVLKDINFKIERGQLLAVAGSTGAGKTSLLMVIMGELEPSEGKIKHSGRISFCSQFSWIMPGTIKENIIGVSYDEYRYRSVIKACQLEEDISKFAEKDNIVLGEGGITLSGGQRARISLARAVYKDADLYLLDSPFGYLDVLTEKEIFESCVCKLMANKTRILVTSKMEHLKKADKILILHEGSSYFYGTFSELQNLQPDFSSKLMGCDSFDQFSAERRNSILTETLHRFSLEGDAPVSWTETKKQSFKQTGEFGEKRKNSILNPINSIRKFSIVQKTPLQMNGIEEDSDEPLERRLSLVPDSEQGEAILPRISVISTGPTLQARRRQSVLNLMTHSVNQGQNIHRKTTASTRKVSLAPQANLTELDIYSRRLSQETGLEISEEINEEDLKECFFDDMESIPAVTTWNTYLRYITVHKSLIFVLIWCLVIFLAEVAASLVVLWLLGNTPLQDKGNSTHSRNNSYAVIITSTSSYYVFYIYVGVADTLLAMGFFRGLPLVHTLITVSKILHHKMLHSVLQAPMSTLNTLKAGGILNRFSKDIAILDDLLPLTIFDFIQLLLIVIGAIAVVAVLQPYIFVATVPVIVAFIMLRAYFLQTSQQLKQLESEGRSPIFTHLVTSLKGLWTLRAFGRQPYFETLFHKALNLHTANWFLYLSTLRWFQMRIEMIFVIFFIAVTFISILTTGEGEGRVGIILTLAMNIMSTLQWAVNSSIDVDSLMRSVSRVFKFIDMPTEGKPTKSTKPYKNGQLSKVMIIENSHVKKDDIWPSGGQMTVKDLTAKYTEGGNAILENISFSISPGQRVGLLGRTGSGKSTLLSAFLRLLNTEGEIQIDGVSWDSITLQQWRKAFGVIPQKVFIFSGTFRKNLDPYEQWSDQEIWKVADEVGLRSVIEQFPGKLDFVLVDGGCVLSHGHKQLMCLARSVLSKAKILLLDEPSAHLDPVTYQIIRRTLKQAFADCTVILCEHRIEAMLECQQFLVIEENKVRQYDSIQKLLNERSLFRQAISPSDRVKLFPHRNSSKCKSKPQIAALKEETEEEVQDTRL

Row | Structure (SMILES) | leq: activity of compound with VX-809, % of VX-809 (AUC of equivalent chloride current) (ΔF508-CFTR [1]) | leq: activity relative to VX-809 (AUC of equivalent chloride current) (ΔF508-CFTR [1]) | also measured
1 | C[C@@H](O)c1nnc([C@H]2C[C@H](NC(=O)c3onc(-c4ccccc4)c3F)C2)o1 [Example 50, 4-Fluoro-3-phenyl-N-[(1r,3r)-3-[5-[(1R)-1-hydroxyethyl]-1,3,4-oxadiazol-2-yl]cyclobutyl]-1,2-oxazole-5-carboxamide] | * (* indicates activity 100-200% of VX-809 (1 uM) with compound at 10 uM and VX-809 at 1 uM) | – | –
2 | COCCNC(=O)c1cc(-c2ccccc2)no1 [Example 1, N-(2-methoxyethyl)-3-phenylisoxazole-5-carboxamide] | – | ++ (++ indicates activity ≥25% run at 10 uM of VX-809 at 1 uM) | –
3 | O=C(NCCN1CCOCC1)c1cc(-c2ccccc2)no1 [Example 3, N-(2-morpholinoethyl)-3-phenylisoxazole-5-carboxamide] | – | ++ (++ indicates activity ≥25% run at 10 uM of VX-809 at 1 uM) | –
4 | O=C(N[C@H]1C[C@H](n2nncc2CO)C1)c1cc(-c2ccccc2)no1 [Example 5, N-(trans-3-(5-(hydroxymethyl)-1H-1,2,3-triazol-1-yl)cyclobutyl)-3-phenylisoxazole-5-carboxamide] | – | – | Ussing: activity of compound with VX-809, % of VX-809 (ΔF508-CFTR [2]): ## (## indicates activity ≥200% of VX-809 (3 uM) with compound at 10 uM and VX-809 at 3 uM)
5 | C[C@@H](O)c1nnc(CC2CC(NC(=O)c3cc(-c4ccccc4)no3)C2)s1 (stereo partly drawn) [Example 42, 3-Phenyl-N-[(1r,3r)-3-([5-[(1R)-1-hydroxyethyl]-1,3,4-thiadiazol-2-yl]methyl)cyclobutyl]-1,2-oxazole-5-carboxamide] | * (* indicates activity 100-200% of VX-809 (1 uM) with compound at 10 uM and VX-809 at 1 uM) | – | –
6 | O=C(NCCN1CCOCC1)c1cc(-c2ccccc2)co1 [Example 10, N-(2-morpholinoethyl)-4-phenylfuran-2-carboxamide] | – | + (+ indicates activity 10 to <25% run at 10 uM of VX-809 at 1 uM) | –
7 | C[C@@H](O)c1nnc(CC2CC(NC(=O)c3cc(-c4ccc(F)cc4)no3)C2)s1 (stereo partly drawn) [Example 44, 3-(4-Fluorophenyl)-N-[(1r,3r)-3-([5-[(1R)-1-hydroxyethyl]-1,3,4-thiadiazol-2-yl]methyl)cyclobutyl]-1,2-oxazole-5-carboxamide] | ** (** indicates activity ≥200% of VX-809 (1 uM) with compound at 10 uM and VX-809 at 1 uM) | – | –
8 | CN1CC(c2nnc([C@H]3C[C@H](NC(=O)c4cc(-c5ccccc5)no4)C3)o2)C1 [Example 21, N-(trans-3-(5-(1-methylazetidin-3-yl)-1,3,4-oxadiazol-2-yl)cyclobutyl)-3-phenylisoxazole-5-carboxamide trifluoroacetate] | * (* indicates activity 100-200% of VX-809 (1 uM) with compound at 10 uM and VX-809 at 1 uM) | – | –
9 | CC(C)(C)c1cc(C(C)(C)C)c(NC(=O)c2c[nH]c3ccccc3c2=O)cc1O [ivacaftor, reference compound] | – | – | Activity in R117H/F508del HBEs (relative to ivacaftor activity) [3]: 100%; Activity in G551D/F508del HBEs (relative to ivacaftor activity) [4]: 100%
10 | O=C(NC1CC1)c1cc(-c2ccccc2)co1 [Example 12, N-cyclopropyl-4-phenylfuran-2-carboxamide] | * (* indicates activity 100-200% of VX-809 (1 uM) with compound at 10 uM and VX-809 at 1 uM) | ++ (++ indicates activity ≥25% run at 10 uM of VX-809 at 1 uM) | –
11 | COCCNC(=O)c1cc(-c2ccccc2)co1 [Example 8, N-(2-methoxyethyl)-4-phenylfuran-2-carboxamide] | – | + (+ indicates activity 10 to <25% run at 10 uM of VX-809 at 1 uM) | –
12 | O=C(N[C@H]1C[C@@H](n2cc(CO)nn2)C1)c1cc(-c2ccccc2)no1 [Example 29, N-(cis-3-(4-(hydroxymethyl)-1H-1,2,3-triazol-1-yl)cyclobutyl)-3-phenylisoxazole-5-carboxamide] | ** (** indicates activity ≥200% of VX-809 (1 uM) with compound at 10 uM and VX-809 at 1 uM) | – | –
13 | C[C@@H](OCC1CN(C)C1)c1nnc([C@H]2C[C@H](NC(=O)c3cc(-c4ccccc4)no3)C2)o1 [Example 20, N-(trans-3-(5-((R)-1-((1-methylazetidin-3-yl)methoxy)ethyl)-1,3,4-oxadiazol-2-yl)cyclobutyl)-3-phenylisoxazole-5-carboxamide] | * (* indicates activity 100-200% of VX-809 (1 uM) with compound at 10 uM and VX-809 at 1 uM) | – | –
14 | CN1CCC(N2CC(c3nnc(C4CC(NC(=O)c5cc(-c6ccccc6)no5)C4)o3)C2)CC1 (stereo not drawn) [Example 24, N-cis-(3-(5-(1-(1-methylpiperidin-4-yl)azetidin-3-yl)-1,3,4-oxadiazol-2-yl)cyclobutyl)-3-phenylisoxazole-5-carboxamide] | * (* indicates activity 100-200% of VX-809 (1 uM) with compound at 10 uM and VX-809 at 1 uM) | – | –
15 | C[C@@H](O)c1nnc(C[C@H]2C[C@H](NC(=O)c3cc(-c4cccs4)no3)C2)o1 [Example 46, N-[(1r,3r)-3-([5-[(1R)-1-Hydroxyethyl]-1,3,4-oxadiazol-2-yl]methyl)cyclobutyl]-3-(thiophen-2-yl)-1,2-oxazole-5-carboxamide] | * (* indicates activity 100-200% of VX-809 (1 uM) with compound at 10 uM and VX-809 at 1 uM) | – | –
16 | Cn1nccc1CCCNC(=O)c1cc(-c2ccccc2)no1 [Example 7, N-(3-(1-methyl-1H-pyrazol-5-yl)propyl)-3-phenylisoxazole-5-carboxamide] | * (* indicates activity 100-200% of VX-809 (1 uM) with compound at 10 uM and VX-809 at 1 uM) | ++ (++ indicates activity ≥25% run at 10 uM of VX-809 at 1 uM) | –
